This is an account of results in patent US10533003B2, “Polyheteroarl histone deacetylase inhibitors and their use in therapy” (Karus Therapeutics Limited, priority 2014, dated 2020).

Molecules are shown by their SMILES.

For one test, the target named is T1, Human HDAC1 (Homo sapiens, UniProt Q13547).
T1 construct: full length with C-terminal His-tag and C-terminal FLAG-tag; His-tag (C); FLAG-tag (C); host or cells: baculovirus expression system
Kind of test: Biochemical HDAC inhibition assay, acetylated AMC-labeled peptide substrate, HDAC1. Conditions: 2 hours at 30° C., read-out: IC50 (nM) HDAC 1. How it is done: (§1) Activity against all zinc-dependent HDACs 1 to 11 was assessed by using an acetylated AMC-labeled peptide substrate. The substrate RHKKAc was used for all class I and IIb HDACs; for HDAC8, the substrate used was RHKAcKAc. Activity against the class IIa HDACs (HDAC4, 5, 7, 9) was determined using a class IIa-specific substrate, Acetyl-Lys(trifluoroacetyl)-AMC (Lahm et al, 2007, PNAS, 104, 17335-17340). All assays were based on the AMC-labeled substrate and developer combination.
(§2) The protocol involved a two-step reaction: first, the substrate with the acetylated lysine side chain is incubated with a sample containing HDAC activity, to produce the deacetylated products, which are then digested in the second step by the addition of developer to produce the fluorescent signal proportional to the amount of deacetylated substrates.
Human HDAC1 (GenBank Accession No. NM_004964), full length with C-terminal His-tag and C-terminal FLAG-tag, MW=56 kDa, expressed in baculovirus expression system.
(§3) Assay Buffer: 50 mM Tris-HCl, pH8.0, 137 mM NaCl, 2.7 mM KCl, 1 mM MgCl2. Before use, 1 mg/mL BSA and DMSO are added.
HDAC1: 2.68 nM HDAC1 and 50 m M HDAC substrate are in the reaction buffer with 1% DMSO final. Incubate for 2 hours at 30° C.
(§4) Stage 1: Deacetylation of substrate by incubation of HDAC enzymes with corn pounds
(§5) Stage 2: Development by addition of Developer to digest the deacetylated substrate, and generate the fluorescent colour; Detection: 360/460 Ex/Em

A further test has as its target T2, Recombinant human HDAC6 (Homo sapiens, UniProt Q9UBN7).
T2 construct: full length, MW=180 kDa, was expressed by baculovirus in Sf9 insect cells; GST (N); host or cells: Sf9 insect cells (baculovirus)
T2 sequence (Q9UBN7 1-1215): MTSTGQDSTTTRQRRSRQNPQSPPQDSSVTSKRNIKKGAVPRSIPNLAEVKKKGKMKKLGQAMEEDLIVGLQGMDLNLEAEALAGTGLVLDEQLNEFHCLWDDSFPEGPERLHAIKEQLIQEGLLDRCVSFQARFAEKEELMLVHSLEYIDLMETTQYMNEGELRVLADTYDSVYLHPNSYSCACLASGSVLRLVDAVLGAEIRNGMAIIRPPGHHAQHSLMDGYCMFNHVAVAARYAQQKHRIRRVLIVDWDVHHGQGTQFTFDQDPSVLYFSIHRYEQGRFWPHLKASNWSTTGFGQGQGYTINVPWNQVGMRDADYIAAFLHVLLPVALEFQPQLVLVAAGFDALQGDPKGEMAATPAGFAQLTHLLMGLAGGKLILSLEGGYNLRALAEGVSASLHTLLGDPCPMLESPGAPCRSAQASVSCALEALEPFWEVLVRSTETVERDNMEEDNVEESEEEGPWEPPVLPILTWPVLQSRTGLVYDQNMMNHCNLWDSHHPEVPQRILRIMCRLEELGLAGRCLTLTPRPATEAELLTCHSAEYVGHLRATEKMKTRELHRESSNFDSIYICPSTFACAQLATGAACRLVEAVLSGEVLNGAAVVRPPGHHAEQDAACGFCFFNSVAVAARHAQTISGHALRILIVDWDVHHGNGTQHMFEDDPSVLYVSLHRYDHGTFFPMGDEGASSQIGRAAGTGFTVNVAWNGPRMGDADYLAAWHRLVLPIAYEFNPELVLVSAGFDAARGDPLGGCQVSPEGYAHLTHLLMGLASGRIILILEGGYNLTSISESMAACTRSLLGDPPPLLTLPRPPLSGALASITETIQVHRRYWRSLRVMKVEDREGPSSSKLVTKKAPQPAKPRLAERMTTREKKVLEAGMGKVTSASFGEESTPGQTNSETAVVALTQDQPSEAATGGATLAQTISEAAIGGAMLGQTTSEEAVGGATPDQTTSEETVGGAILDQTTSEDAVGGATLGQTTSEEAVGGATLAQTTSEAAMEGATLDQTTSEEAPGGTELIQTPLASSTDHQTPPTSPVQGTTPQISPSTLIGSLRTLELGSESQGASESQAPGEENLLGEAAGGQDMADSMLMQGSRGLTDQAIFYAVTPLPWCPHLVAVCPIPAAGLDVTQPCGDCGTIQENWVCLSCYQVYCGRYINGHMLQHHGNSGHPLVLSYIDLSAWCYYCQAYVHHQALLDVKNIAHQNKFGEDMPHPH
Kind of test: Biochemical HDAC inhibition assay, acetylated AMC-labeled peptide substrate, HDAC6. The settings on record: 2 hours at 30° C., read-out: IC50 (nM) HDAC 6. How it is done: as §1, §2
Recombinant human HDAC6 (GenBank Accession No. BC069243), full length, MW=180 kDa, was expressed by baculovirus in Sf9 insect cells using an N-terminal GST tag.
as §3
HDAC6: 0.56 nM HDAC6 and […] HDAC substrate are in the reaction buffer with 1% DMSO final. Incubate for 2 hours at 30° C.
as §4, §5

T1 sequence (Q13547 whole entry): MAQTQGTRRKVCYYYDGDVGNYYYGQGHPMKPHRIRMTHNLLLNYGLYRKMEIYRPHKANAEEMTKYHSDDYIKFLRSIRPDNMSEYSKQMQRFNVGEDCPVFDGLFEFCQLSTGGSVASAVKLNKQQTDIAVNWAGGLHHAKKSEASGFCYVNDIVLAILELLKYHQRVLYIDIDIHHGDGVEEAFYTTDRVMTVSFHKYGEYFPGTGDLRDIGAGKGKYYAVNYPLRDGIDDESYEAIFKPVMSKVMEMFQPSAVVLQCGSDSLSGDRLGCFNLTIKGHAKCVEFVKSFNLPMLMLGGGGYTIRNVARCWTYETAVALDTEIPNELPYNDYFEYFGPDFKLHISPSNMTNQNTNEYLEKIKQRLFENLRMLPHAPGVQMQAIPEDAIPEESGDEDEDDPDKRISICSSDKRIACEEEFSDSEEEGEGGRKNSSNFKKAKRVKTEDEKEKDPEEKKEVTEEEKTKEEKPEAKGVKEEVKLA

What is called IC50 is the concentration at which inhibition is half-maximal. Consider `Nc1ncc(-c2ccnc(N(Cc3ccc(C(=O)NO)cc3)c3cnccn3)c2)cn1` [Example A, 4-({[4-(2-Aminopyrimidin-5-yl)pyridin-2-yl](pyrazin-2-yl)amino}methyl)-N-hydroxybenzamide], for which the IC50 is 1000 to 10000 nM at Human HDAC1 and at most 500 nM on Recombinant human HDAC6.
Consider `O=C(NO)c1ccc(CN(c2cnccn2)c2cc(-c3cnc4[nH]ccc4c3)ccn2)cc1` [Example B, N-Hydroxy-4-{[(pyrazin-2-yl)(4-{1H-pyrrolo[2,3-b]pyridin-5-yl}pyridin-2-yl)amino]methyl}benzamide], for which the results for the IC50 at Human HDAC1 and at Recombinant human HDAC6 were 1000 to 10000 nM and at most 500 nM, respectively.
In the case of `O=C(NO)c1ccc(CN(c2cnccn2)c2cc(-c3ccc4[nH]ccc4c3)ccn2)cc1` [Example C, N-Hydroxy-4-({[4-(1H-indol-5-yl)pyridin-2-yl](pyrazin-2-yl)amino}methyl)benzamide], the IC50 at Human HDAC1 is 500 to 1000 nM; on Recombinant human HDAC6 it was at most 500 nM.
For the molecule `O=C(NO)c1ccc(CN(c2cnccn2)c2cc(-c3cn[nH]c3)ccn2)cc1` [Example D, N-Hydroxy-4-{[(pyrazin-2-yl)[4-(1H-pyrazol-4-yl)pyridin-2-yl]amino]methyl}benzamide], the 50% inhibitory concentration (IC50) is 1000 to 10000 nM at Human HDAC1 and at most 500 nM on Recombinant human HDAC6.
Regarding `O=C(NO)c1ccc(CN(c2cnccn2)c2cc(-c3ccoc3)ccn2)cc1` [Example E, 4-({[4-(Furan-3-yl)pyridin-2-yl](pyrazin-2-yl)amino}methyl)-N-hydroxybenzamide], the figures for the IC50 at Human HDAC1 and on Recombinant human HDAC6 were 500 to 1000 nM and at most 500 nM, respectively.
On to `Cc1cc(-c2ccnc(N(Cc3ccc(C(=O)NO)cc3)c3cnccn3)c2)c(C)o1` [Example F, 4-({[4-(2,5-Dimethylfuran-3-yl)pyridin-2-yl](pyrazin-2-yl)amino}methyl)-N-hydroxybenzamide], for which the IC50 at Human HDAC1 was 1000 to 10000 nM; on Recombinant human HDAC6 it was at most 500 nM.
The corresponding values for `O=C(NO)c1ccc(CN(c2cnccn2)c2cc(-c3c[nH]nc3C(F)(F)F)ccn2)cc1` [Example G, N-Hydroxy-4-{[(pyrazin-2-yl)({4-[3-(trifluoromethyl)-1H-pyrazol-4-yl]pyridin-2-yl})amino]methyl}benzamide] are 1000 to 10000 nM and at most 500 nM.
On to `Cc1noc(C)c1-c1ccnc(N(Cc2ccc(C(=O)NO)cc2)c2cnccn2)c1` [Example H, 4-({[4-(Dimethyl-1,2-oxazol-4-yl)pyridin-2-yl](pyrazin-2-yl)amino}methyl)-N-hydroxybenzamide], for which the IC50 is at least 10000 nM on Human HDAC1 and at most 500 nM at Recombinant human HDAC6.
With `Cc1n[nH]cc1-c1ccnc(N(Cc2ccc(C(=O)NO)cc2)c2cnccn2)c1` [Example I, N-Hydroxy-4-({[4-(3-methyl-1H-pyrazol-4-yl)pyridin-2-yl](pyrazin-2-yl)amino}methyl)benzamide], the IC50 is at least 10000 nM at Human HDAC1 and at most 500 nM at Recombinant human HDAC6.
As to `Cc1n[nH]c(C)c1-c1ccnc(N(Cc2ccc(C(=O)NO)cc2)c2cnccn2)c1` [Example J, 4-({[4-(3,5-Dimethyl-1H-pyrazol-4-yl)pyridin-2-yl](pyrazin-2-yl)amino}methyl)-N-hydroxybenzamide], the results for the IC50 on Human HDAC1 and at Recombinant human HDAC6 were 1000 to 10000 nM and at most 500 nM, respectively.
For `O=C(NO)c1ccc(CN(c2cnccn2)c2cc(-c3c[nH]c4ncccc34)ccn2)cc1` [Example K, N-Hydroxy-4-{[(pyrazin-2-yl)(4-{1H-pyrrolo[2,3-b]pyridin-3-yl}pyridin-2-yl)amino]methyl}benzamide] the same measures were 1000 to 10000 nM and at most 500 nM.
`O=C(NO)c1ccc(CN(c2cnccn2)c2cc(-c3cc[nH]n3)ccn2)cc1` [Example L, N-Hydroxy-4-{[(pyrazin-2-yl)[4-(1H-pyrazol-3-yl)pyridin-2-yl]amino]methyl}benzamide]: the IC50 at Human HDAC1 was 1000 to 10000 nM; at Recombinant human HDAC6 it was at most 500 nM.
For `Nc1ncc(-c2ccnc(N(Cc3ccc(C(=O)NO)cc3)c3cnccn3)c2)cc1F` [Example M, 4-({[4-(6-Amino-5-fluoropyridin-3-yl)pyridin-2-yl](pyrazin-2-yl)amino}methyl)-N-hydroxybenzamide] the same measures were 1000 to 10000 nM and at most 500 nM.
In the case of `CC(=O)Nc1ccc(-c2ccnc(N(Cc3ccc(C(=O)NO)cc3)c3cnccn3)c2)cn1` [Example N, 4-({[4-(6-Acetamidopyridin-3-yl)pyridin-2-yl](pyrazin-2-yl)amino}methyl)-N-hydroxybenzamide], the IC50 is 1000 to 10000 nM at Human HDAC1 and at most 500 nM on Recombinant human HDAC6.
For `CC(=O)Nc1cc(-c2ccnc(N(Cc3ccc(C(=O)NO)cc3)c3cnccn3)c2)ccn1` [Example O, 4-({[4-(2-Acetamidopyridin-4-yl)pyridin-2-yl](pyrazin-2-yl)amino}methyl)-N-hydroxybenzamide], the IC50 at Human HDAC1 is 1000 to 10000 nM; on Recombinant human HDAC6 it was at most 500 nM.
The corresponding values for `Nc1ccc(-c2ccnc(N(Cc3ccc(C(=O)NO)cc3F)c3cnccn3)c2)cn1` [Example P, 4-({[4-(6-Aminopyridin-3-yl)pyridin-2-yl](pyrazin-2-yl)amino}methyl)-3-fluoro-N-hydroxybenzamide] are 500 to 1000 nM and at most 500 nM.
Take `Nc1cc(-c2ccnc(N(Cc3ccc(C(=O)NO)cc3F)c3cnccn3)c2)ccn1` [Example Q, 4-({[4-(2-Aminopyridin-4-yl)pyridin-2-yl](pyrazin-2-yl)amino}methyl)-3-fluoro-N-hydroxybenzamide]: the IC50 on Human HDAC1 was 1000 to 10000 nM; at Recombinant human HDAC6 it was at most 500 nM.
`CC(=O)Nc1ccc(-c2ccnc(N(Cc3ccc(C(=O)NO)cc3F)c3cnccn3)c2)cn1` [Example R, 4-({[4-(6-Acetamidopyridin-3-yl)pyridin-2-yl](pyrazin-2-yl)amino}methyl)-3-fluoro-N-hydroxybenzamide]: the half-inhibitory concentration (IC50) was 1000 to 10000 nM at Human HDAC1 and at most 500 nM on Recombinant human HDAC6.
For `CC(=O)Nc1cc(-c2ccnc(N(Cc3ccc(C(=O)NO)cc3F)c3cnccn3)c2)ccn1` [Example S, 4-({[4-(2-Acetamidopyridin-4-yl)pyridin-2-yl](pyrazin-2-yl)amino}methyl)-3-fluoro-N-hydroxybenzamide] the same measures were 1000 to 10000 nM and at most 500 nM.
For `CS(=O)(=O)Nc1ccc(-c2ccnc(N(Cc3ccc(C(=O)NO)cc3F)c3cnccn3)c2)cn1` [Example T, 3-Fluoro-N-hydroxy-4-({[4-(6-methanesulfonamidopyridin-3-yl)pyridin-2-yl](pyrazin-2-yl)amino}methyl)benzamide] the same measures were at least 10000 nM and at most 500 nM.
For `CS(=O)(=O)Nc1cc(-c2ccnc(N(Cc3ccc(C(=O)NO)cc3F)c3cnccn3)c2)ccn1` [Example U, 3-Fluoro-N-hydroxy-4-({[4-(2-methanesulfonamidopyridin-4-yl)pyridin-2-yl](pyrazin-2-yl)amino}methyl)benzamide] the same measures were at least 10000 nM and at most 500 nM.
